Measured values from ChEMBL document CHEMBL1773025, “Synthesis of tetrahydronaphthalene lignan esters by intramolecular cyclization of ethyl p-azidophenyl-2-phenylalkanoates and evaluation of the growth inhibition of human tumor cell lines” (2011).
The source made the active and inactive calls. No cut-off for these calls is given here.

Columns and labels:
NCI-H460 = experiment: Growth inhibition of human NCI-H460 cells after 48 hrs by sulforhodamine B assay; type: functional; conditions: NCI-H460, 48 h
SF-268 = experiment: Growth inhibition of human SF268 cells after 48 hrs by sulforhodamine B assay; type: functional; conditions: SF-268, 48 h
MCF7 = experiment: Growth inhibition of human MCF7 cells after 48 hrs by sulforhodamine B assay; type: functional; conditions: MCF7, 48 h
UACC-62 = experiment: Growth inhibition of human UACC62 cells after 48 hrs by sulforhodamine B assay; type: functional; conditions: UACC-62, 48 h
WI-38 VA13 = experiment: Growth inhibition of human VA13 cells after 48 hrs by sulforhodamine B assay; type: functional, cell-based
HepG2 = experiment: Growth inhibition of human HepG2 cells after 48 hrs by sulforhodamine B assay; type: functional, cell-based

Row | Structure (SMILES) | GI50 (NCI-H460) | GI50 (MCF7) | GI50 (SF-268) | GI50 (UACC-62) | growth inhibition (GI) (WI-38 VA13) | growth inhibition (GI) (HepG2)
1 | CCOC(=O)C(CCc1ccc([N+](=O)[O-])cc1)c1ccccc1 (centres undefined) | > 150 µM | 134 µM | > 150 µM |  |  | 
2 | O=[N+]([O-])c1cccc(CCCO)c1 | > 250 µM | > 250 µM | > 250 µM | > 250 µM |  | 
3 | COc1cccc2c1C(=O)c1c(O)c3c(c(O)c1C2=O)C[C@@](O)(C(=O)CO)C[C@@H]3O[C@H]1C[C@H](N)[C@H](O)[C@H](C)O1 [DOXORUBICIN] | 0.094 µM | 42.8 µM | 0.094 µM |  |  | 
4 | CCOC(=O)C(CCCc1ccc(N)cc1)c1ccccc1 (centres undefined) | > 160 µM | 155 µM | > 160 µM | > 100 µM |  | 
5 | CCOC(=O)C1CCC(c2ccc(N)cc2)c2ccccc21 (racemic) | 142 µM | 117 µM | 116 µM |  | inactive | 
6 | O=[N+]([O-])c1ccc(CCI)cc1 | 112 µM | 55.8 µM | 95.7 µM |  |  | 
7 | COC(=O)/C=C/c1cccc([N+](=O)[O-])c1 | 175 µM | 74.1 µM | 180 µM |  |  | 
8 | COC(=O)/C=C/c1ccc([N+](=O)[O-])cc1 | > 240 µM | 214 µM | > 240 µM |  |  | 
9 | COc1cc(C2c3c(cc4c(c3OC)OCO4)CC(COC(C)=O)C2COC(C)=O)cc(OC)c1O (centres undefined) |  |  |  |  |  | inactive
10 | CCOC(=O)C1CCC2(C=CC(=O)C=C2)c2ccccc21 (centres undefined) | 19.2 µM | 16.4 µM | 21.9 µM |  |  | 
11 | CCOC(=O)C(CCCc1ccc([N+](=O)[O-])cc1)c1ccccc1 (centres undefined) | 19.4 µM | 16.4 µM | 23.2 µM |  |  | 

Continued, in another order:

Row | GI50 (NCI-H460) | GI50 (MCF7) | Structure (SMILES) | GI50 (SF-268) | GI50 (UACC-62) | growth inhibition (GI) (WI-38 VA13) | growth inhibition (GI) (HepG2)
12 | 132 µM | 104 µM | CCOC(=O)C(CCc1cccc(N)c1)c1ccccc1 (centres undefined) | 159 µM | 102 µM |  | 
13 | > 150 µM | > 150 µM | CCOC(=O)C(CCCc1ccc(N=[N+]=[N-])cc1)c1ccccc1 (centres undefined) | > 150 µM |  |  | 
14 | 149 µM | 92.7 µM | CCOC(=O)C(CCc1cccc([N+](=O)[O-])c1)c1ccccc1 (centres undefined) | > 150 µM |  |  | 
15 | 154 µM | 109 µM | CCOC(=O)C(CCCc1cccc(N)c1)c1ccccc1 (centres undefined) | > 160 µM | 125 µM |  | 
16 | 40.8 µM | 36.3 µM | CCOC(=O)C(CCc1ccc(N)cc1)c1ccccc1 (centres undefined) | 51.8 µM | 23.3 µM |  | 
17 | > 160 µM | 120 µM | CCOC(=O)C(CCc1cccc(N=[N+]=[N-])c1)c1ccccc1 (centres undefined) | > 160 µM |  |  | 
18 | > 160 µM | 125 µM | CCOC(=O)C(CCc1ccc(N=[N+]=[N-])cc1)c1ccccc1 (centres undefined) | > 160 µM |  |  | 
19 | > 150 µM | 119 µM | CCOC(=O)C(CCCc1cccc(N=[N+]=[N-])c1)c1ccccc1 (centres undefined) | > 150 µM |  |  | 
20 | > 150 µM | 149 µM | CCOC(=O)C(CCCc1cccc([N+](=O)[O-])c1)c1ccccc1 (centres undefined) | > 150 µM |  |  | 
